# Experimental data from patent US4939124A, “Treatment and diagnosis of dementia” (Laboratorios Serono S.A., priority 1988, dated 1990).
# Key:
# [1] = system: Male Wistar rats; assay: Locomotor activity in open field paradigm (OUCEM-86), i.c.v. injection; type: in vivo
# Excerpt: To clarify whether SS and GRF display at the central level the same antagonistic effect that they have at the pituitary level, the effects of these neuropeptides on several behavioral parameters have been studied using the OUCEM-86^TM (Osaka University Computerized Electronic Maze). The system is integrated by the following components: a Programmable Electronic Platform (PEP) (620×620 mm) equipped with 48 photo beam sensors (OPX-T30); a Programming Panel (PP) (Model BECM-0064) for paradigm stimulation; a Shock Generator Scrambler (SGS) (Model BSG-1065) to apply continuous or discontinuous electric current to the PEP; a Control Station (CS) (BEC 16-Bio Computer Control Station BCS-1105; Bio Medica, Ltd., Osaka) which processes inputs/outputs as an interface device to automatically computerize behavioral parameters; and a Computer System (NEC PC-9801 VM2) with 1 megabyte Random Access Memory (RAM) for data processing and experimental setting.
# Male Wistar rats (175-200 g) (N =5-8 rats/group) received intracerebroventricular (i.c.v.) injections of GRF1-44 and SS-14 over a range of 0.1 to 10 mcg. Then the rats were studied in the OUCEM under two different paradigms (e.g., open field and maze paradigms).
# The animals were placed in the PEP for 30-minute periods and locomotor activity (LA) was automatically recorded in an open field paradigm. Total LA is represented as total inputs (I/O) including movements in four-footed position (4F) and in two-footed position (2F), grooming, rearing and jumping activity, while linear (horizontal) movements (4F) are represented as pulses per minute (pm) or cm^2 /min
# [2] = system: female in-patients with primary degenerative dementia (Alzheimer like); assay: 8-day GRF (1-29) NH2 therapy, MMS Folstein test and Crichton's scale; type: in vivo, human; conditions: for MMS Folstein and Crichton's scale scores and clinical findings: 8 days, 12 hours, 24 hours, 7 days
# Description: Twenty female in-patients with primary degenerative dementia (Alzheimer like) aged 67-84 years were divided in two therapy-groups with GRF (1-29) NH2. All patients were treated with this product for 8 days with either of the following schedules: (I) 250 mcg s.c. twice daily (II) 50 mcg i.v. twice daily Therapy was started after a 15-day wash-out period for psychotropic-drugs. Evolution of patients was assessed using the MMS Folstein test and Chrichton's scale test at 12 hours, 24 hours and 7 days after starting with GRF. The statistical evaluation was made using Friedman test with a risk level p<0,01 (highly significant differences).
# [3] = system: controls and SDAT subjects; assay: Electroencephalographic monitoring during the GRF test; type: in vivo, human; conditions: for EEG amplitude, sequential analysis (increase) / EEG frequency, sequential analysis (fall): 15 to 45 minutes after injection
# Description: (§1) Simultaneously to the performance of the GRF test, electroencephalograhic and cardiovascular monitorization of the subjects were carried out. Twenty-four hours prior to the GRF test, and 3, 12, 24 and 48 hours after testing, the DRS, MMS, BCRS, and FAST tests were performed to evaluate mental performance and behavior. Additional monitoring of GRF effects was done by global physician assessment and evaluation of the Mihara Nursing Scale (MNS). This test was developed to be used as a non-cognitive parametric indicator involving several items, including quantification of food intake, locomotion, social interaction, and complementary laboratory data.
# (§2) The results were analyzed statistically by the Student's test, analysis of variance (ANOVA) and the Mann-Whitney test using a NEC PC-9801VM2 computer.
# [4] = system: SDAT patients and controls; assay: Mental performance and behavior after the GRF test (DRS, MMS, BCRS, MNS); type: in vivo, human; conditions: for DRS score: basal 3.5±1.75; for MMS score: basal 3.5±2.65
# Description: All the SDAT patients met the DSM-III criteria for primary degenerative dementia and rigorous diagnostic criteria for SDAT. […] In LOSDAT, the onset of the disease occurred after the age of 60. The degree of severity of the dementia was assessed with Hasegawa's Dementia Rating Scale (DRS) (Hasegawa K., Inoue K. "An investigation of dementia rating scale for the elderly." Seishinigaku 16:965-969, 1974), Folstein's Mini-Mental State (MMS) Test (Folstein M. F., Folstein S., McHugh P. "Mini-mental state: a practical method for grading the cognitive state of patients for the clinician." J. Psychiat. Res. 12:189-198, 1975) and a modified model of the Brief Cognitive Rating Scale (BCRS) and Functional Assessment Stages (FAST) of Reisberg (Reisberg B., Ferris S. H., De Leon M. J. "Senile dementia of the Alzheimer type: Diagnosis and differential diagnostic features with special reference to functional assessment staging." in: Traber J., Gispen W. H. (Ed). Senile dementia of the Alzheimer type. pp 18-37, Springer-Verlag, Berlin, 1985). Concomitant pathology other than SDAT was discarded under a careful screening of the subjects with CT Scan, EEG, ECG and complementary laboratory data. Current diagnosis or history of SDM-III major affective disorder or schizophrenia as well as history of endocrine disease were criteria for exclusion. All of the control subjects were free of psychiatric and endocrine illness. All subjects included had been drug-free for a minimum of 7 days before testing.
# as §1, §2
# [5] = system: Male Wistar rats; assay: Locomotor activity and learning in maze paradigm (escape from 1.5 mA shock area), i.c.v. injection; type: in vivo; conditions: GRF1-44 5 mcg i.c.v., 30 minutes; control 17.12±5.42 pm
substance,measurement,setting,value
growth hormone releasing factor [GRF],"locomotor activity (LA), open field","[1]; 1 mcg i.c.v. (SS-14 / GRF1-44), 30-minute period, control 31.16±6.90 pm",47.60±5.35 pm
same,"locomotor activity (LA), open field","[1]; GRF1-44 1 mcg i.c.v., control 1122±248 cm^2 /min",1713.6±69.5 cm^2 /min
same,"qualitative behavioral change, open field",[1]; GRF 1 mcg i.c.v.,"hyperkinetic syndrome characterized by compulsive, uncontrolled movements"
same,comparison of i.v. and s.c. groups (increase in scores and clinical findings),[2]; GRF (1-29) NH2 50 mcg i.v. vs 250 mcg s.c. twice daily,more important in the group with i.v. GRF administration than in the one with s.c. administration
same,persistence of effect,"[2]; GRF (1-29) NH2, both groups",remains significant over the whole 7 days of treatment
same,start of effect after administration,"[2]; GRF (1-29) NH2, both groups",12 h
same,sphincter control and general psychomotricity after discontinuation,[2]; GRF (1-29) NH2 administration discontinued,returned to pretreatment situation
same,sphincter control and general psychomotricity (nurse's report),[2]; during treatment with GRF (1-29) NH2,improvement
same,MMS Folstein and Crichton's scale scores and clinical findings,[2]; group I: GRF (1-29) NH2 250 mcg s.c. twice daily,significant increase
same,MMS Folstein and Crichton's scale scores and clinical findings,[2]; group II: GRF (1-29) NH2 50 mcg i.v. twice daily,significant increase
same,"EEG amplitude, sequential analysis (increase)",[3]; SDAT patients,52.5±9.89 uV
same,"EEG frequency, sequential analysis (fall)",[3]; SDAT patients,7.05±0.90 Hz
same,"EEG basic rhythm frequency, global evaluation after testing","[3]; SDAT, prior to GRF test 8.08±0.67 Hz",7.46±0.53 Hz
same,"EEG basic rhythm amplitude, global evaluation after testing","[3]; SDAT, prior to GRF test 40.80±6.06 uV",43.69±5.12 uV
same,"EEG amplitude, sequential analysis (increase)",[3]; control subjects,55.60±6.40 uV
same,"EEG frequency, sequential analysis (fall)",[3]; control subjects,8.75±0.25 Hz
same,"EEG basic rhythm frequency, global evaluation after testing","[3]; controls, prior to GRF test 9.27±0.11 Hz",9.05±0.12 Hz
same,"EEG basic rhythm amplitude, global evaluation after testing","[3]; controls, prior to GRF test 47.36±3.36 uV",49.67±5.75 uV
same,DRS score,[4]; 3 hr after GRF test,5.5±2.10
same,MMS score,[4]; 3 hr after GRF test,5.15±3.75
same,DRS score,[4]; 12 hr after GRF test,6.75±3.25
same,MMS score,[4]; 12 hr after GRF test,5.5±3.65
same,DRS score,[4]; 24 hr after GRF test,4.35±1.95
same,MMS score,[4]; 24 hr after GRF test,4.5±2.75
same,DRS score,[4]; 48 hr after GRF test,3.5±1.55
same,MMS score,[4]; 48 hr after GRF test,4.35±2.75
same,duration of behavioral changes,[4]; BCRS and MNS changes after GRF test,transient
same,BCRS Axis 4 (orientation) affected by GRF,[4]; after GRF test,30%
same,BCRS Axis 7 (psychomotor) affected by GRF,[4]; after GRF test,50%
same,BCRS Axis 8 (mood and behavior) affected by GRF,[4]; after GRF test,40%
same,bulimic syndrome developed,[4]; after GRF test,2 patients
same,"appetite increased (MNS), share of subjects",[4]; controls,30%
same,"appetite increased (MNS), share of subjects",[4]; patients,45%
same,"social interaction improved (MNS), share of subjects",[4]; patients,40%
same,"locomotor activity (LA), maze paradigm",[5],90.2±8.4 pm
